According to US10766865B2, “PKM2 modulators and methods for their use” (TOLERO PHARMACEUTICALS, INC., priority 2012, dated 2020):

Test system: A549 cells
Assay: Cell Proliferation Assay, A549
Assay type: cell-based
Settings: Homo sapiens; A549, BME media lacking nonessential amino acids, 72 hours, ATPlite; read-out: Percent viability (EC50), Average
Protocol: Cells were seeded at 5000 cells per well (in 96-well plate) in BME media lacking nonessential amino acids+5% dialyzed serum. After 18 hours, DMSO or compound in 0.1% final concentration DMSO was added.
Percent viability (EC50) of A549 and PC3 cells was tested against certain exemplary compounds according to the above general procedures.

**Q.** How did the EC50 turn out when `O=C(c1cc(C(F)(F)F)n[nH]1)N(Cc1ccc(O)cc1F)CC1CCC1` [Example 1, N-(cyclobutylmethyl)-N-(2-fluoro-4-hydroxybenzyl)-3-(trifluoromethyl)-1H-pyrazole-5-carboxamide] was run?
**A.** The EC50 was 70 nM.
